# Results from patent US20210222225A1, “Medium for Disk Diffusion Method to Evaluate Antibiotic Sensitivity” (priority 2018, published 2021).
# Columns and labels:
# [1] = system: Pseudomonas aeruginosa ATCC27853 strain; assay: Colistin disk diffusion on modified Mueller-Hinton agar, PAE; format: cell-based
# Description: To each MHA thus modified was added protamine (Sigma-Aldrich, St Louis, Mo., USA) at a concentration of 100 μg/ml, and solidification was performed. Then, on a surface of the medium was evenly inoculated each of colistin-susceptible (S) or -resistant (R) Acinetobacter calcoaceticus-baumannii complex (ACB) strain, Pseudomonas aeruginosa ATCC27853 strain, Escherichia coli ATCC25922 strain, and mcr-1-harboring Enterobacter aerogenes strain, and a colistin disk was placed thereon. Subsequently, a diameter of a growth inhibition zone (colistin inhibition zone), which had been formed clear by diffusion of colistin to the agar around the colistin disk, was measured.
# As in Example 1, a concentration of agar particles (BD Diagnostic, Sparks, Md., USA) in Mueller-Hinton broth medium (BD Diagnostic) was adjusted to 17 g/L or 5.1 g/L that is 30% of 17 g/L. To select a concentration of protamine, which can enhance diffusion of colistin from a disk without interfering with bacterial growth, while using the protamine at various concentrations, protamine (Sigma-Aldrich, St Louis, Mo., USA) was added to the medium at concentrations of 1 mg/ml, 700 μg/ml, 400 μg/ml, 300 μg/ml, 200 μg/ml, 150 μg/ml, 100 μg/ml, and 50 μg/ml. Each medium thus modified was solidified. Then, on a surface of each medium was evenly inoculated each of colistin-susceptible (S) or -resistant (R) Acinetobacter calcoaceticus-baumannii complex (ACB) strain, Pseudomonas aeruginosa ATCC27853 strain, and mcr-1-harboring Enterobacter aerogenes strain, and a colistin disk was placed thereon. Then, it was determined whether each strain was grown, and a diameter of a growth inhibition zone, which had been formed around the disk, was measured.
# ABA A14_S = assay: Colistin disk diffusion, guanidine hydrochloride medium, A14_S; format: cell-based, Acinetobacter baumannii; conditions: 30% agar
# Description: (§1) A concentration of agar particles (BD Diagnostic, Sparks, Md., USA) in Mueller-Hinton broth medium (BD Diagnostic) was adjusted to 5.1 g/L, which is 30% of 17 g/L, and guanidine hydrochloride was added to a concentration of 500 μg/ml, 50 μg/ml, or 5 μg/ml. Then, solidification was performed. On a surface of each medium thus prepared was evenly inoculated each of colistin-susceptible (S) or -resistant (R) Acinetobacter baumannii (ABA) strain, colistin-susceptible (S) or -resistant (R) Klebsiella pnemoniae (KPN) strain, and colistin-susceptible (S) or -resistant (R) Pseudomonas aeruginosa (PAE) strain, and a colistin disk was placed thereon. Then, pictures of a growth inhibition zone, which had been formed clear, around the disk were taken for each strain, and the results are illustrated in FIGS. 8 to 10.
# KPN K4036_R = assay: Colistin disk diffusion, guanidine hydrochloride medium, K4036_R; format: cell-based, Klebsiella pnemoniae; conditions: 30% agar
# Description: as §1
# PAE P1624_R = assay: Colistin disk diffusion, guanidine hydrochloride medium, P1624_R; format: cell-based, Pseudomonas aeruginosa; conditions: 30% agar
# Description: as §1
# [2] = guanidine hydrochloride 5 μg/ml
# [3] = guanidine hydrochloride 50 μg/ml
# [4] = guanidine hydrochloride 500 μg/ml
substance,measurement,setting,value
colistin,Disk diffusion (mm),"[1]; 30% agar, protamine 50 μg/ml",17 mm
same,Diameter (mm) of colistin inhibition zone,"[1]; 30% agar, protamine 100 μg/ml",16 mm
same,Disk diffusion (mm),"[1]; 30% agar, protamine 100 μg/ml",18 mm
same,Disk diffusion (mm),"[1]; 30% agar, protamine 150 μg/ml",18 mm
same,Disk diffusion (mm),"[1]; 30% agar, protamine 200 μg/ml",20 mm
same,Disk diffusion (mm),"[1]; 30% agar, protamine 300 μg/ml",6 mm
same,Disk diffusion (mm),"[1]; 30% agar, protamine 400 μg/ml",6 mm
same,Disk diffusion (mm),"[1]; 30% agar, protamine 700 μg/ml",6 mm
same,Disk diffusion (mm),"[1]; 30% agar, protamine 1,000 μg/ml",6 mm
same,Diameter (mm) of colistin inhibition zone,"[1]; 40% agar, protamine 100 μg/ml",15 mm
same,Diameter (mm) of colistin inhibition zone,"[1]; 50% agar, protamine 100 μg/ml",14 mm
same,Diameter (mm) of colistin inhibition zone,"[1]; 60% agar, protamine 100 μg/ml",15 mm
same,Diameter (mm) of colistin inhibition zone,"[1]; 70% agar, protamine 100 μg/ml",14 mm
same,Diameter (mm) of colistin inhibition zone,"[1]; 80% agar, protamine 100 μg/ml",14 mm
same,Diameter (mm) of colistin inhibition zone,"[1]; 90% agar, protamine 100 μg/ml",13 mm
same,Disk diffusion (mm),"[1]; 100% agar, protamine 50 μg/ml",14 mm
same,Diameter (mm) of colistin inhibition zone,"[1]; 100% agar, protamine 100 μg/ml",13 mm
same,Disk diffusion (mm),"[1]; 100% agar, protamine 100 μg/ml",14 mm
same,Disk diffusion (mm),"[1]; 100% agar, protamine 150 μg/ml",14 mm
same,Disk diffusion (mm),"[1]; 100% agar, protamine 200 μg/ml",13 mm
same,Disk diffusion (mm),"[1]; 100% agar, protamine 300 μg/ml",14 mm
same,Disk diffusion (mm),"[1]; 100% agar, protamine 400 μg/ml",15 mm
same,Disk diffusion (mm),"[1]; 100% agar, protamine 700 μg/ml",17 mm
same,Disk diffusion (mm),"[1]; 100% agar, protamine 1,000 μg/ml",18 mm
same,Disk diffusion (mm),ABA A14_S; [2],15 mm
same,Disk diffusion (mm),ABA A14_S; [3],15 mm
same,Disk diffusion (mm),ABA A14_S; [4],15 mm
same,Disk diffusion (mm),KPN K4036_R; [2],16 mm
same,Disk diffusion (mm),KPN K4036_R; [3],16 mm
same,Disk diffusion (mm),KPN K4036_R; [4],14 mm
same,Disk diffusion (mm),PAE P1624_R; [2],12 mm
same,Disk diffusion (mm),PAE P1624_R; [3],12 mm
same,Disk diffusion (mm),PAE P1624_R; [4],12 mm
